Test results: patent US4794183A, “Certain tetrahydro-furan or pyran phosphate-ethylene or propylene ammonium derivatives” (Sankyo Company Limited, priority 1985, dated 1988)
Where two headings read alike, the source gives them in different places.

How the values were obtained:
[1] = system: rabbits' platelet-rich plasma; experiment: Platelet aggregating activity using rabbits' platelet-rich plasma (method of Born et al.); format: cell-based, rabbit; conditions: Oryctolagus cuniculus, read-out: Platelet aggregating effect (EC50)
Method: The platelet aggregating activity of the compounds of the invention using rabbits' platelet-rich plasma was examined by the method of Born et al. [Born et al., J. Physiol., 162, 67-68 (1962)]. The EC50 values were calculated. As in Experiment 2, C16 PAF was used as a reference.

sarcoma 180 = experiment: Anti-tumor effect, survival of mice transplanted intraperitoneally with sarcoma 180 ascites cells; format: in vivo, mice (ICR/Jcl strain, female); conditions: for ILS (increase in lifespan) / No. surviving after 60 days: single dose, intraperitoneal; for ILS (increase in lifespan): (Tt-Tc) as percentage of Tc; for No. surviving after 60 days: survivors/number in test group; for mice kept alive at the end of 60 days: text summary of Table 8, dose not stated
Method: The test animals used were 8 week old female mice of the ICR/Jcl strain and were employed in groups of 5 mice for each test. Into each mouse were transplanted intraperitoneally 1×10^5 ascites cells of sarcoma 180. The day after transplantation, the test compound, dissolved in sterilized physiological saline, was administered in a single dose (in the amount shown in the following Table 8) intraperitoneally to the animals. A control group was given an intraperitoneal administration of sterilized physiological saline without any active compound. The results are reported in the following Table 8 as follows: Tt /Tc, where Tt is the mean survival time (in days) of the mice of a test group (i.e. to which one of the test compound was administered) and Tc is the mean survival time (in days) of the control group; ILS (%), i.e. the increase in lifespan, which is calculated as (Tt -Tc) expressed as a percentage of Tc; and number surviving after 60 days, in which the first number is the number of animals surviving, and the second number is the number in the test group.

[2] = rabbits' platelet-rich plasma, C16 PAF as reference

Structure (SMILES)	EC50 [1, 2]	ILS (increase in lifespan) (sarcoma 180; 5 mg/kg)	No. surviving after 60 days (sarcoma 180; 5 mg/kg)	mice kept alive at the end of 60 days (sarcoma 180)	ILS (increase in lifespan) (sarcoma 180; 10 mg/kg)	No. surviving after 60 days (sarcoma 180; 10 mg/kg)	ILS (increase in lifespan) (sarcoma 180; 20 mg/kg)	No. surviving after 60 days (sarcoma 180; 20 mg/kg)	EC50 ([1]; Platelet)
CCCCCCCCCCCCCCCCOC[C@H]1OCC[C@@H]1OP(=O)([O-])OCC[N+](C)(C)C (relative stereo) [Example 5, dl-(trans-2-Hexadecyloxymethyltetrahydrofuran-3-yl) 2-(trimethylammonio)ethyl phosphate]	> 100 µM	157%	2/5	2 of the 5					
CCCCCCCCCCCCCCCCO[C@@H]1CCCO[C@H]1COP(=O)([O-])OCC[N+](C)(C)C (relative stereo) [Example 3, dl-(trans-3-Hexadecyloxytetrahydropyran-2-yl)methyl 2-(trimethylammonio)ethyl phosphate]	> 400 µM				127%	1/5			
CCCCCCCCCCCCCCCCOC[C@H]1OCCC[C@@H]1OP(=O)([O-])OCC[N+](C)(C)C (relative stereo) [Example 1, dl-(trans-2-Hexadecyloxymethyltetrahydropyran-3-yl) 2-(trimethylammonio)ethyl phosphate]	> 100 µM	169%	2/5	2 of the 5	136%	1/5			
CCCCCCCCCCCCCCCCOC[C@H]1OCCC[C@@H]1OP(=O)([O-])OCC[n+]1ccccc1 (relative stereo) [Example 6, dl-(trans-2-Hexadecyloxymethyltetrahydropyran-3-yl) 2-pyridinioethyl phosphate]							155%	0/5	
CCCCCCCCCCCCCCCCOCC(COP(=O)([O-])OCC[N+](C)(C)C)OC(C)=O (stereo not shown) [C16 PAF, reference compound]									0.009 µM
